Experiment [1] has as its system p38 and NF-kB. Put plainly: Analysis of p38 and NF-kB activation on lung DCs. Type of experiment: cell-based, murine. As to the method: P38 and NF-kB were activated on lung DCs by exposure for 20 minutes at 37° C. to Aspergillus conidia and/or 100 ng/ml TA1. Blots of cell lysates were incubated with rabbit polyclonal Abs recognizing either the unphosphorylated form of p38 MAPK, or the double-phosphorylated (Thr-180/Tyr-182) p38 MAPK, or Abs specific for the Rel A, 65 kDa DNA binding subunit of human NF-kB followed by horseradish peroxidase-conjugated goat anti-rabbit IgG, as per manufacturer's instructions. Blots were developed with an Enhanced Chemiluminescence detection kit. Bands were visualized after exposure of the blots to a Kodak RX film. To ensure similar protein loading in each lane, the phospho blots were stripped and the membranes were reprobed with Abs against p38 and NF-kB.

The test system of experiment [2] is human MDC and PDC subsets. The experiment in a line: Activation of human MDC and PDC subsets: phagocytosis, phenotype, cytokine release. Type of experiment: cell-based. The following applies: in response to conidia. The method, then:
Blood CD 11c^+ myeloid DCs (MDCs) were generated from CD 14^+ mononuclear cells by magnetic cell sorting and cultured for 5 days in Iscove's modified medium, containing 10% fetal bovine serum, 50 micromolar 2-mercaptoethanol, sodium pyruvate (1 mM), 2 mM L-glutamine, HEPES (10 mM), and 50 micrograms/ml gentamycin in the presence of 50 ng/ml rHuman GM-CSF and 200 U/ml rHuman IL-4. Immature MDCs were cultured for 24 hours with 1000 ng/ml trimeric human CD40 ligand-leucine-zipper fusion protein to obtain mature DCs. CD 123^+ plasmacytoid DCs (PDCs) were isolated using the BDCA-4 isolation kit. Purity of CD 123^+ cells was >96%. For mature PDCs, immature DCs were cultured with the trimeric human CD40 ligand as above and 10 ng/ml IL-3. […] The expression of HLA Class II, CD80 and CD86 was high in both immature and mature DCs. Murine lung CD 11c^+ DCs (between 5 to 7% positive for CD8alpha and between 30 to 35% positive for Gr-1) were isolated by magnetic cell sorting. For phagocytosis, DCs were pre-exposed to 100 ng/ml TA1 for 60 minutes and subsequently incubated at 37° C. with Aspergillus conidia for an additional 60 minutes. The percentage of internalization was calculated and photographs were taken. In assessing functional maturation and cytokine determination, purified DCs were resuspended in Iscove's medium (with no serum but with polymixin B, to avoid non-specific activation by serum components and endotoxin) and pulsed with 100 ng/ml TA1 for 24 hours either alone or together with TLR ligands or unopsonized Aspergillus conidia. Cell surface phenotype was assessed by reacting samples with FITC- or PE-conjugated rat anti-mouse antibodies. Unrelated hisotype matched antibodies were used as control. The levels of TNF-alpha, IL-10, IL-12 p70, IFN-alpha and IL-8 in culture supernatants were determined by Kit ELISAs. The detection limits (pg/ml) of the assays were <3 (human) and <32 (murine) for TNF-alpha, <12 (murine) and <5 (human) for IL-10, <16 (murine) and <3 (human) for IL-12 p70 and <25 (human) IL-8. For human IFN-alpha <3 ng/ml. For enumeration of cytokine-producing cells, an ELISPOT assay was used on purified CD4^+ T cells and DCs from lungs.

Experiment [3] concerns murine DCs. Put plainly: RT-PCR of TLR expression on DCs. Type of experiment: cell-based. The method, then:
Synthesis and PCR of cDNA were performed with forward and reverse PCR primers and the cycles used for murine and human TLRs and HPRT. The synthesized PCR products were separated by electrophoresis on 2% agarose gel and visualized by ethidium bromide staining.

Experiment [4] relates to A. fumigatus. Put plainly: BMT mice with invasive aspergillosis: survival, fungal growth in lungs (chitin assay), lung histology. To be noted: G-CSF 250 microgram/kg intravenously. Format: in vivo. The source says: For infection with A. fumigatus, mice were intranasally injected for 3 consecutive days with a suspension of 2×10^7 conidia/20 microliter saline. For the quantification of fungal growth in the lungs, the chitin assay was used. The chitin content was expressed as micrograms of glucosamine per organ. The glucosamine content of lungs from uninfected mice was used as a negative control ranging between 0.80 and 2.25 microgram glucosamine/organ. For histological analysis, lungs were excised and immediately fixed in formalin. Sections (3 to 4 micron) of paraffin-embedded tissues were stained with the periodic acid-Schiff procedure. Thymosin alpha 1 (TA1) and the scrambled polypeptide are as purified sterile lyophilized acetylated polypeptides with endotoxin levels less than 0.03 pg/ml, by a standard limulus lysate assay. The sequences were as follows: Ac-[…]O (Thymosin alpha 1, SEQ ID NO.: 1) and Ac-[…]OH ([…]). Their lyophilized powders were reconstituted in sterile water.
The treatments were as follows; in BMT-mice, TA1, at different doses administered intraperitoneally, sthymosin alpha 1, 400 microgram/kg administered intraperitoneally or human recombinant G-CSF 250 microgram/kg administered intravenously, were given daily beginning the day of the BM infusion, in concomitance with the infection and continuing for an additional 3 days. Amphotericin B was given daily for 3 days in concomitance with the infection, at a dose of 4000 microgram/kg, administered intraperitoneally. This dose would cure IA in cyclophosphamide-treated mice. Cyclophosphamide, 150 mg/kg administered intraperitoneally, was given a day before the infection. In cyclophosphamide-treated mice, 400 microgram/kg TA1 was given intraperitoneally for 5 consecutive days beginning the day of the infection.
C57BL6 mice were exposed to a lethal dose of 9 Gy and infused with T cell-depleted donor cells from BALB/c mice.

[5] abbreviates: combined exposure to conidia and peptide.

These results are taken from patent US8389680B2, “Treatment of Aspergillus infections with alpha thymosin peptides” (SciClone Pharmaceuticals, Inc., priority 2003, dated 2013).

Take `Oc1ccc(-c2nc(-c3ccncc3)c(-c3ccc(F)cc3)[nH]2)cc1` [SB202190]: the “effect of inhibitor on the effect of TA1 on DCs” value in experiment [1] (inhibitor given with TA1) was “ablate the effect of TA1 on DCs”.

“Ac-Ala-Lys-Ser-Asp-Val-Lys-Ala-Glu-Thr-Ser-Ser-Glu-Ile-Asp-Thr-Thr-Glu-Leu-Asp-Glu-Lys-Val-Glu-Val-Lys-Ala-Asn-Glu-OH (Ac-AKSDVKAETSSEIDTTELDEKVEVKANE-OH) [scrambled peptide]”: the p38 phosphorylation result is listed as “not stimulated” in experiment [1] (peptide alone, 20 minutes) and “not stimulated” in experiment [1] (scrambled peptide plus conidia). For the same molecule, the “HLA Class II antigens and costimulatory molecule expression” value in experiment [2] was “failed to up-regulate”. Also, the “cytokine production by DCs” value in experiment [2] is “failed”. In addition, the “expression of TLR2” value in experiment [3] (setting [5]) and in experiment [3] (peptide alone) was “failed to activate” throughout. Moreover, the “expression of TLR9” value in experiment [3] (setting [5]) and in experiment [3] (peptide alone) was “failed to activate” in each case.

B1: G-CSF: human recombinant G-CSF, known to accelerate neutrophil recovery in mice (protein, UniProt P09919 31-207, looked up)
Granulocyte …: TPLGPASSLPQSFLLKCLEQVRKIQGDGAALQEKLVSECATYKLCHPEELVLLGHSLGIPWAPLSSCPSQALQLAGCLSQLHSGLFLYQGLLQALEGISPELGPTLDTLQLDVADFATTIWQQMEELGMAPALQPTQGAMPAFASAFQRRAGGVLVASHLQSFLEVSYRVLRHLAQP
As to B1, in experiment [4], the “antifungal resistance by recovery from neutropenia alone, compared with TA1” value is reported as “not sufficient”.
